Test systems include HCT-116 colon; HCT-15 colon; KM12 colon; NCI-H226 lung; NCI-H522 lung; OVCAR-3 ovarian; OVCAR-4 ovarian; U251 CNS; PC-3 prostate; T-47D breast; TK-10 renal.
Holding throughout (assay): DTP human tumour cell line panel, 48 h

Where “and” joins values, the source holds several entries; their conditions need not be identical. Equal entries are not always repeated.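 Tested at 5 concentrations; 48 h exposure; 96-well plates; endpoints linearly interpolated, else capped at highest concentration. The concentration for 50% growth inhibition is given as GI50. TGI: total growth inhibition.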

Consider `O=c1oc2cc(O)ccc2c2oc3cc(O)ccc3c12`, for which the TGI in the assay with HCT-116 colon is 70.2 µM; in the assay on HCT-15 colon, over 125 µM; with KM12 colon it was over 125 µM; with NCI-H226 lung it was over 125 µM; in the assay on NCI-H522 lung, 31.9 µM; in the assay with OVCAR-3 ovarian, 114 µM. The values for the TGI in the assay on OVCAR-4 ovarian and with U251 CNS were over 125 µM and 93.5 µM, respectively.
For the compound `CC(=O)OCC1=CC2OC(=O)C3=COC(OC4OC(CO)C(O)C(O)C4O)C1C32` (configuration not stated), the TGI with HCT-116 colon, with HCT-15 colon, in the assay with KM12 colon, in the assay on NCI-H226 lung, in the assay with NCI-H522 lung and with OVCAR-3 ovarian was over 100 µM each time. In addition, the TGI in the assay with OVCAR-4 ovarian, with PC-3 prostate, in the assay with T-47D breast, in the assay on TK-10 renal and with U251 CNS was over 100 µM throughout.
For the compound `C1=CC=C2NCCc3cccc(c3)CCNC3=CC=CC=CC3=NCCCCCCN=C2C=C1`, the TGI is 56.3 µM with HCT-15 colon; 47.3 µM in the assay on KM12 colon; 86 µM in the assay with NCI-H226 lung; 47.2 µM with NCI-H522 lung; 99 µM with OVCAR-3 ovarian; 39 µM with OVCAR-4 ovarian. For the same compound, the TGI in the assay on U251 CNS was over 100 µM.
`COc1nc2ccc(CNc3ccc(C(=O)NC(CCC(=O)O)C(=O)O)cc3)cc2nc1OC` (configuration not stated): the TGI in the assay with HCT-15 colon, in the assay on KM12 colon, in the assay with NCI-H226 lung, with NCI-H522 lung, with OVCAR-3 ovarian and in the assay with OVCAR-4 ovarian was over 100 µM each time. The total growth inhibition concentration (TGI) with PC-3 prostate, in the assay with T-47D breast, with TK-10 renal and with U251 CNS was over 100 µM throughout.
As to `CC(=O)OC12CC[N+]3(C)CCCCC3C1=Nc1ccccc12` (configuration not stated), the TGI in the assay with HCT-116 colon, with HCT-15 colon, with KM12 colon, in the assay with NCI-H226 lung, in the assay with NCI-H522 lung and with OVCAR-3 ovarian was over 100 µM each time. Moreover, the TGI with OVCAR-4 ovarian, in the assay on PC-3 prostate, with T-47D breast, with TK-10 renal and in the assay on U251 CNS was over 100 µM each time.
On to `N#Cc1ccc([N+](=O)[O-])cc1NC(N)=S`, for which the TGI in the assay with HCT-116 colon, with HCT-15 colon, in the assay with KM12 colon, in the assay on NCI-H522 lung, in the assay with OVCAR-3 ovarian and in the assay with U251 CNS was over 100 µM in each case.
`COc1cc2c3c(n(CCCn4cncn4)c(=O)c2cc1OC)-c1cc2c(cc1C3=O)OCO2`: the GI50 with HCT-116 colon is 0.567 µM; in the assay with HCT-15 colon, over 100 µM; with KM12 colon it was over 100 µM; in the assay on OVCAR-3 ovarian it was 31.9 µM; with OVCAR-4 ovarian, over 100 µM; with PC-3 prostate it was 39.8 µM. In addition, the GI50 in the assay on TK-10 renal was 35.2 µM; in the assay on U251 CNS, under 0.0449 µM. The TGI in the assay with HCT-116 colon, in the assay with HCT-15 colon, with KM12 colon, in the assay with NCI-H226 lung, with NCI-H522 lung and with OVCAR-3 ovarian was over 100 µM each time. The TGI is over 100 µM in the assay on OVCAR-4 ovarian; over 100 µM in the assay on PC-3 prostate; over 100 µM with T-47D breast; over 88.1 µM in the assay with TK-10 renal; 31.8 µM in the assay on U251 CNS.
With `CCCCC(=O)c1c(O)ccc2c(C)cc(=O)oc12`, the concentration for total growth inhibition (TGI) in the assay on HCT-116 colon, in the assay on HCT-15 colon, with KM12 colon, in the assay on NCI-H226 lung, in the assay on NCI-H522 lung and in the assay with OVCAR-3 ovarian was over 100 µM in each case. Moreover, the TGI with OVCAR-4 ovarian is over 100 µM; with PC-3 prostate it was over 100 µM; in the assay with T-47D breast, 51.4 µM; in the assay on TK-10 renal it was over 100 µM; in the assay on U251 CNS, over 100 µM.
`CCOc1ccccc1Nc1ccc(N)cc1S(=O)(=O)O`: the TGI in the assay with HCT-116 colon, with HCT-15 colon, in the assay with KM12 colon, with NCI-H226 lung, in the assay with NCI-H522 lung and in the assay with OVCAR-3 ovarian was over 100 µM in each case. Further, the concentration for total growth inhibition (TGI) with OVCAR-4 ovarian, in the assay with PC-3 prostate, in the assay on T-47D breast, with TK-10 renal and in the assay with U251 CNS was over 100 µM in each case.
As for `COc1ccc(C(=O)CCN(C)C)c2ccccc12`, the TGI in the assay on HCT-116 colon was 52.5 µM; in the assay with HCT-15 colon, 48.7 µM; with KM12 colon, over 63.7 µM; in the assay with NCI-H226 lung it was over 100 µM; in the assay with NCI-H522 lung, 21.9 µM; with OVCAR-3 ovarian, 36.9 µM. Further, the TGI in the assay with OVCAR-4 ovarian is 65.1 µM; with PC-3 prostate, 34 µM; in the assay with T-47D breast, 49.5 µM; in the assay with TK-10 renal, over 54.4 µM; in the assay on U251 CNS, 35.1 µM.
Turning to `CC1(O)C2(c3ccccc3)CCC[N+]1(C)CC2` (configuration not stated), the TGI with HCT-116 colon, with HCT-15 colon, in the assay with KM12 colon, with NCI-H226 lung, in the assay with OVCAR-3 ovarian and in the assay on OVCAR-4 ovarian was over 100 µM each time. Moreover, the TGI in the assay on PC-3 prostate, with T-47D breast, in the assay on TK-10 renal and in the assay on U251 CNS was over 100 µM throughout.
As to `CC[C@@]1(O)C[C@H](OC2CC(N(C)C)C(OC3CC(O)C(OC4CCC(=O)C(C)O4)C(C)O3)C(C)O2)c2c(cc3c(c2O)C(=O)c2c(O)cccc2C3=O)C1C(=O)OC` (some centres not stated), the TGI was 1.2 µM and 3.13 µM in the assay on HCT-15 colon; 0.23 µM and 1.96 µM with OVCAR-3 ovarian; 0.117 µM in the assay with OVCAR-4 ovarian; 1.47 µM in the assay with PC-3 prostate; 2.72 µM and 9.24 µM with U251 CNS.
`Nc1nc(SCCNC(=O)CCc2ccc(O)c(I)c2)nc2c1ncn2C1OC(CO)C(O)C1O` (configuration not stated): the TGI in the assay with HCT-116 colon, in the assay with HCT-15 colon, in the assay on KM12 colon, with NCI-H226 lung, in the assay on NCI-H522 lung and in the assay on OVCAR-3 ovarian was over 100 µM in each case. Besides, the TGI in the assay on OVCAR-4 ovarian, with TK-10 renal and in the assay on U251 CNS was over 100 µM throughout.
Take `[C-]#[N+]C(=C\c1ccc(O)cc1)/C(=C/c1ccc(O)cc1)[N+]#[C-]`: the TGI in the assay on HCT-116 colon was 15.8 µM; with HCT-15 colon it was over 100 µM; in the assay with KM12 colon, over 22.3 µM; in the assay on NCI-H226 lung, over 22.7 µM; with NCI-H522 lung it was over 33.1 µM; with OVCAR-3 ovarian it was over 100 µM. Also, the TGI is over 100 µM in the assay on OVCAR-4 ovarian; over 26.7 µM in the assay on PC-3 prostate; 12.1 µM in the assay on T-47D breast; over 100 µM in the assay on TK-10 renal; over 23.7 µM with U251 CNS.
In the case of `O=C1CCCCN1`, the TGI in the assay on HCT-116 colon, in the assay on HCT-15 colon, in the assay with KM12 colon, in the assay on NCI-H226 lung, in the assay on NCI-H522 lung and with OVCAR-3 ovarian was over 1120 µM in each case. In addition, the TGI with OVCAR-4 ovarian and with U251 CNS was over 1120 µM throughout.
Consider `C=CCn1c(=O)c(Br)nn(CCOCP(=O)(OCC)OCC)c1=O`, for which the total growth inhibition concentration (TGI) in the assay with HCT-15 colon, with KM12 colon, in the assay on NCI-H226 lung, in the assay with NCI-H522 lung, with OVCAR-3 ovarian and in the assay on PC-3 prostate was over 100 µM throughout. The TGI with T-47D breast and in the assay on U251 CNS was over 100 µM in each case.
As for `CC(C)CNCCc1ccccn1`, the TGI with HCT-116 colon, in the assay with HCT-15 colon, in the assay with KM12 colon, in the assay with NCI-H226 lung, with NCI-H522 lung and with OVCAR-3 ovarian was over 100 µM in each case. The TGI in the assay with OVCAR-4 ovarian, in the assay on PC-3 prostate, with TK-10 renal and in the assay on U251 CNS was over 100 µM throughout.
Consider `O=Cc1ccccc1CCn1c(=O)c2cc3c(=O)n(CCc4ccccc4C=O)c(=O)c3cc2c1=O`, for which the TGI with HCT-116 colon, in the assay on HCT-15 colon, in the assay on KM12 colon, in the assay on NCI-H226 lung, in the assay on NCI-H522 lung and with OVCAR-3 ovarian was over 100 µM in each case. Further, the TGI with OVCAR-4 ovarian, in the assay on TK-10 renal and with U251 CNS was over 100 µM in each case.
Regarding `CC(C)C1=CC2=CC[C@@H]3[C@](C)(CCC[C@@]3(C)C(=O)O)[C@H]2CC1`, the TGI with HCT-116 colon is over 80.2 µM; in the assay on HCT-15 colon, over 87 µM; with KM12 colon, over 100 µM; with NCI-H226 lung, over 100 µM; in the assay with NCI-H522 lung, over 100 µM; in the assay with OVCAR-3 ovarian, 72.4 µM. Also, the TGI in the assay on OVCAR-4 ovarian, in the assay on TK-10 renal and with U251 CNS was over 100 µM throughout.
Take `CN1c2c(nc(N)[nH]c2=O)NCC1CCNc1ccc(C(=O)NC(CCC(=O)O)C(=O)O)cc1` (configuration not stated): the TGI was 1390 µM with HCT-116 colon; 3010 µM in the assay on HCT-15 colon; 2220 µM in the assay with KM12 colon; 3050 µM in the assay on NCI-H226 lung; 2470 µM in the assay on NCI-H522 lung; 2460 µM in the assay on OVCAR-3 ovarian. For the same compound, the TGI amounted to 2400 µM in the assay on OVCAR-4 ovarian; 1750 µM with PC-3 prostate; 4260 µM with T-47D breast; 2500 µM in the assay with TK-10 renal; 2080 µM in the assay with U251 CNS.
`CC1=C(SCCO)C(=O)c2ccccc2C1=O`: the TGI in the assay on HCT-116 colon came out at 17.4 µM; in the assay with HCT-15 colon, 25.3 µM; in the assay with KM12 colon, 26.8 µM; in the assay with NCI-H226 lung it was 29.1 µM; in the assay with NCI-H522 lung it was 14.6 µM; with OVCAR-3 ovarian, 15.3 µM. The TGI in the assay with OVCAR-4 ovarian is 15.3 µM; in the assay with PC-3 prostate, 25.1 µM; with T-47D breast, 20.5 µM; with TK-10 renal it was 30.4 µM; in the assay with U251 CNS, 26.1 µM.
As to `c1ccc(SCCc2ccncc2)cc1`, the TGI in the assay on HCT-116 colon, in the assay on HCT-15 colon, in the assay with KM12 colon, in the assay with NCI-H226 lung, with NCI-H522 lung and in the assay on OVCAR-3 ovarian was over 100 µM in each case. The TGI in the assay on OVCAR-4 ovarian, in the assay on PC-3 prostate, in the assay with T-47D breast, in the assay with TK-10 renal and with U251 CNS was over 100 µM throughout.
`CC(=O)OCCCCN1C(=O)CSc2ccccc21`: the TGI with HCT-116 colon, in the assay with HCT-15 colon, in the assay with KM12 colon, with NCI-H522 lung, in the assay with OVCAR-3 ovarian and in the assay with OVCAR-4 ovarian was over 100 µM in each case. For the same compound, the TGI in the assay with PC-3 prostate, in the assay on T-47D breast, with TK-10 renal and in the assay on U251 CNS was over 100 µM each time.

One may read the TGI as the concentration giving total growth inhibition. Read a low TGI as more potent growth arrest. What is called GI50 is the concentration at which growth is held to half of that of the control.

The record behind these values is PubChem BioAssay (NCI).
